Measurements taken from ChEMBL document CHEMBL1156188, “Synthesis and SAR of novel 4-morpholinopyrrolopyrimidine derivatives as potent phosphatidylinositol 3-kinase inhibitors” (J Med Chem, 2010).
In brackets after ≈: the same amount, converted by molar mass.

How the values were obtained:
[1] = test system: PC-3; test: Cytotoxicity against human PC3 cells with PTEN mutant after 72 hrs; assay type: functional, cell-based; settings: PC-3, 72 h
[2] = Solubility at pH 7.4; assay type: physicochemical; settings: buffer
[3] = in vitro; settings: rat, liver microsomes
[4] = test system: MDA-MB-361; test: cells; settings: Homo sapiens, MDA-MB-361, 72 h
[5] = target: Serine/threonine-protein kinase mTOR (Homo sapiens, UniProt P42345); test: Inhibition of mTOR by DELFIA
[6] = target: Phosphatidylinositol 4,5-bisphosphate 3-kinase catalytic subunit alpha isoform (Homo sapiens, UniProt P42336)
[7] = Drug level in human MDA-MB-361 cells xenografted nude mouse at 25 mg/kg, iv after 8 hrs; assay type: ADME, organism-based; set-up: dose 25 mg/kg, route intravenous; settings: blood, read-out: Drug uptake
[8] = in vitro; settings: mouse, liver microsomes
[9] = Solubility at pH 3; assay type: physicochemical; settings: buffer
[10] = in vitro; settings: human, liver microsomes

Sequence of Phosphatidylinositol 4,5-bisphosphate 3-kinase catalytic subunit alpha isoform (P42336 whole entry, canonical isoform): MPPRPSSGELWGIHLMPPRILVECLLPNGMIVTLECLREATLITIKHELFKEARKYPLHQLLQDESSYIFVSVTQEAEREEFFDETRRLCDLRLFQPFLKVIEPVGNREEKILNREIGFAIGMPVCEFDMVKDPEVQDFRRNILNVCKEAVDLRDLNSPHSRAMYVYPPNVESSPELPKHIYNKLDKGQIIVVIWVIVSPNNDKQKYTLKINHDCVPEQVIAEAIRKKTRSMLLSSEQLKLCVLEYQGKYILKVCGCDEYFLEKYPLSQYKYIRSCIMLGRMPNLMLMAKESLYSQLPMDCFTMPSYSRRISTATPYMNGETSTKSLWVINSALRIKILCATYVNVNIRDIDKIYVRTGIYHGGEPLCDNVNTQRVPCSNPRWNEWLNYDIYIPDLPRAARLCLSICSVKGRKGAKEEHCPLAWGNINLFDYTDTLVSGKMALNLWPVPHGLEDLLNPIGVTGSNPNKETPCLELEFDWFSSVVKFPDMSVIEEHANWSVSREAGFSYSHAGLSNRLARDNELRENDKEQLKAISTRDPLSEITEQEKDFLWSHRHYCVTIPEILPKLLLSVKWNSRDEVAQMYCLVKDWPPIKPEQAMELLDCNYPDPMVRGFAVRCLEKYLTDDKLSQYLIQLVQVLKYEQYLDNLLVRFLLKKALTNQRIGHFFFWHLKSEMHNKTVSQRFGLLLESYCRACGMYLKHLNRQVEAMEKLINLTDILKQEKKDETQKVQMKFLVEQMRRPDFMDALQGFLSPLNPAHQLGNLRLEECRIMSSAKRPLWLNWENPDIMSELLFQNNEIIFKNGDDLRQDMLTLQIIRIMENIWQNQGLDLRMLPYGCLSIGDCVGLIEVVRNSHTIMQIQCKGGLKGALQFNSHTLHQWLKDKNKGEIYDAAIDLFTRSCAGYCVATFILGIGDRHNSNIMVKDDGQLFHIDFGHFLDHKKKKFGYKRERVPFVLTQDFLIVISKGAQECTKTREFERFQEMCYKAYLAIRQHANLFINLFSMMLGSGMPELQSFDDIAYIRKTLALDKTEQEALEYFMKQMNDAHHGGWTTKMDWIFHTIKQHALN

solubility [2] [µg/mL]	half-life [3] [min]	SMILES	IC50 [1] [nM]	further results
–	–	CN(C)Cc1c[nH]c2c(N3CCOCC3)nc(-c3cccc(CO)c3)nc12	> 3160	–
–	–	OCc1cccc(-c2nc(N3CCOCC3)c3[nH]cc(CN4CCCC4)c3n2)c1	> 3160	–
–	–	Oc1cccc(-c2nc(N3CCOCC3)c3[nH]cc(C4CCN(Cc5ccc(F)cc5)CC4)c3n2)c1	1650	–
38 (≈ 122 µM)	–	OCc1cccc(-c2nc(N3CCOCC3)c3cc[nH]c3n2)c1	1210	–
> 100	9	CNC(=O)Nc1ccc(-c2nc(N3CCOCC3)c3ccn(CCN(C)C)c3n2)cc1	437	–
–	–	O=C(Nc1ccncc1)Nc1ccc(-c2nc(N3CCOCC3)c3cc[nH]c3n2)cc1	187	–
28 (≈ 54.6 µM)	4	O=C(Nc1ccncc1)Nc1ccc(-c2nc(N3CCOCC3)c3ccn(CCN4CCCC4)c3n2)cc1	555	–
> 100	–	CN(C)CCn1ccc2c(N3CCOCC3)nc(-c3cccc(O)c3)nc21	1180	–
–	–	OCc1cccc(-c2nc(N3CCOCC3)c3[nH]ccc3n2)c1	2080	–
2 (≈ 6.75 µM)	–	Oc1cccc(-c2nc(N3CCOCC3)c3cc[nH]c3n2)c1	580	–
> 100	–	CN(C)CCn1ccc2c(N3CCOCC3)nc(-c3cccc(CO)c3)nc21	691	–
47 (≈ 89.2 µM)	4	O=C(Nc1ccncc1)Nc1ccc(-c2nc(N3CCOCC3)c3ccn(CCN4CCCCC4)c3n2)cc1	634	–
58 (≈ 110 µM)	8	CN(C)CCNCCn1ccc2c(N3CCOCC3)nc(-c3ccc(NC(=O)Nc4ccncc4)cc3)nc21	1150	–
1 (≈ 2.01 µM)	> 30	O=C(Nc1ccncc1)Nc1ccc(-c2nc(N3CCOCC3)c3ccn(CC(F)(F)F)c3n2)cc1	82	IC50 [4]: 53 nM
2 (≈ 3.97 µM)	4	COC(Cn1ccc2c(N3CCOCC3)nc(-c3ccc(NC(=O)Nc4ccncc4)cc3)nc21)OC	72	–
2 (≈ 4.37 µM)	–	O=CCn1ccc2c(N3CCOCC3)nc(-c3ccc(NC(=O)Nc4ccncc4)cc3)nc21	639	–
–	–	CN(C)CCn1ccc2c(N3CCOCC3)nc(-c3ccc(NC(=O)Nc4ccc(F)cc4)cc3)nc21	189	IC50 [5]: 8 nM

solubility [2] [µg/mL]	half-life [3] [min]	SMILES	IC50 [1] [nM]	further results
> 100	8	CCNC(=O)Nc1ccc(-c2nc(N3CCOCC3)c3ccn(CCN(C)C)c3n2)cc1	–	–
> 100	4	CN1CCN(CCn2ccc3c(N4CCOCC4)nc(-c4ccc(NC(=O)Nc5ccncc5)cc4)nc32)CC1	964	–
1 (≈ 2.18 µM)	22	O=C(Nc1ccncc1)Nc1ccc(-c2nc(N3CCOCC3)c3ccn(CCO)c3n2)cc1	91	IC50 [6]: 5 nM
–	29	CN(C)CCN(C)C(=O)c1ccc(NC(=O)Nc2ccc(-c3nc(N4CCOCC4)c4ccn(CC(F)(F)F)c4n3)cc2)cc1	13	IC50 [4]: < 3 nM; concentration at 8 h [7]: 1730 ng/mL; IC50 [5]: 0.6 nM; half-life [8]: > 30 min; solubility [9]: > 100 µg/mL; half-life [10]: > 30 min
–	> 30	CN(C)CCNC(=O)c1ccc(NC(=O)Nc2ccc(-c3nc(N4CCOCC4)c4ccn(CC(F)(F)F)c4n3)cc2)cc1	23	IC50 [4]: 10.3 nM; IC50 [5]: 0.4 nM; IC50 [6]: 1.4 nM; solubility [9]: 68 µg/mL (≈ 111 µM); half-life [10]: > 30 min
–	27	CN1CCN(C(=O)c2ccc(NC(=O)Nc3ccc(-c4nc(N5CCOCC5)c5ccn(CC(F)(F)F)c5n4)cc3)cc2)CC1	17	IC50 [4]: 6.7 nM; concentration at 8 h [7]: 1680 ng/mL; IC50 [5]: 1.7 nM; half-life [8]: > 30 min; IC50 [6]: 2.4 nM; solubility [9]: > 100 µg/mL; half-life [10]: > 30 min
> 100	4	O=C(Nc1ccncc1)Nc1ccc(-c2nc(N3CCOCC3)c3ccn(CCN4CCNCC4)c3n2)cc1	2330	–
1 (≈ 1.54 µM)	> 30	CN(C)C1CCN(C(=O)c2ccc(NC(=O)Nc3ccc(-c4nc(N5CCOCC5)c5ccn(CC(F)(F)F)c5n4)cc3)cc2)CC1	45	IC50 [4]: 11 nM
1 (≈ 1.8 µM)	> 30	CCn1ccc2c(N3CCOCC3)nc(-c3ccc(NC(=O)Nc4ccc(C(=O)NCCN(C)C)cc4)cc3)nc21	26.5	IC50 [4]: 5.5 nM; IC50 [5]: 0.5 nM; IC50 [6]: 1.8 nM; half-life [10]: > 30 min
–	15	CCn1ccc2c(N3CCOCC3)nc(-c3ccc(NC(=O)Nc4ccc(C(=O)N5CCN(C)CC5)cc4)cc3)nc21	17	IC50 [4]: 4.5 nM; IC50 [5]: 1.4 nM; IC50 [6]: 2.7 nM; half-life [10]: > 30 min
1 (≈ 1.8 µM)	> 30	CCn1ccc2c(N3CCOCC3)nc(-c3ccc(NC(=O)Nc4ccc(C(=O)N5CCNCC5)cc4)cc3)nc21	27	IC50 [4]: 4.5 nM; IC50 [5]: 0.9 nM; IC50 [6]: 0.8 nM; half-life [10]: > 30 min
21 (≈ 43.2 µM)	5	CN(C)CCn1ccc2c(N3CCOCC3)nc(-c3ccc(NC(=O)Nc4ccccn4)cc3)nc21	882	–
52 (≈ 107 µM)	9	CN(C)CCn1ccc2c(N3CCOCC3)nc(-c3ccc(NC(=O)Nc4cccnc4)cc3)nc21	137	IC50 [5]: 3 nM
–	–	Oc1cccc(-c2nc(N3CCOCC3)c3[nH]ccc3n2)c1	1550	–
52 (≈ 107 µM)	2	CN(C)CCn1ccc2c(N3CCOCC3)nc(-c3ccc(NC(=O)Nc4ccncc4)cc3)nc21	100	IC50 [6]: 8 nM
–	2	OCc1cccc(-c2nc(N3CCOCC3)c3ncn(C4CCN(Cc5ccccc5)CC4)c3n2)c1	–	–
